What follows are compounds tested on PC-12 (assay: Neuroprotective activity against H2O2-induced cytotoxicity in rat PC-12 cells assessed as cell viability at 12.5 uM pretreated for 24 hrs followed by H2O2 challenge and measured after 24 hrs by MTT assay (reference value: 52.81 +/- 6%)). Settings: time 48 hrs, read-out: Activity.
Format: functional

Row | SMILES | viability at 12.5 µM [%]
1 | CCN(CC)C(=O)/C=C/C=C/c1ccc(O)cc1 | 67.3
2 | CCN(CC)C(=O)/C=C/C=C/c1ccccc1OC | 80.7
3 | COc1cccc(/C=C/C=C/C(=O)N2CCCCC2)c1 | 58.1
4 | O=C(/C=C/C=C/c1ccc(N2CCOCC2)cc1)N1CCCCC1 | 20.2
5 | O=C(/C=C/C=C/c1cccs1)N1CCCCC1 | 57.9
6 | O=C(/C=C/c1ccc(N2CCCC2)cc1)N1CCCCC1 | 30.6
7 | CCNC(=O)/C=C/C=C/c1ccccc1OC | 74.6
8 | O=C(/C=C/C=C/c1ccc(N2CCCCC2)cc1)N1CCCCC1 | 18.9
9 | O=C(/C=C/C=C/c1cccc(O)c1)N1CCCCC1 | 75.7
10 | O=C(/C=C/C=C/c1ccc2c(c1)OCO2)N1CCCCC1 [PIPERINE] | 55.7
11 | O=C(/C=C/C=C/c1ccco1)N1CCCCC1 | 33.3
12 | CCNC(=O)/C=C/c1ccc2c(c1)OCO2 | 69.7
13 | CCN(CC)C(=O)/C=C/c1ccc(N2CCCC2)cc1 | 26.1
14 | COc1ccc(/C=C/C=C/C(=O)N2CCCCC2)cc1 | 26.5
15 | CCN(CC)C(=O)/C=C/C=C/c1ccc2c(c1)OCO2 | 31.4
16 | O=C(/C=C/C=C/c1ccc(-c2ccccc2)cc1)N1CCCCC1 | 15.2
17 | CCNC(=O)/C=C/C=C/c1ccc(O)cc1 | 69.1

Row | SMILES | viability at 12.5 µM [%]
18 | CCNC(=O)/C=C/c1cccs1 | 56.5
19 | CCN(CC)C(=O)/C=C/C=C/c1cccn1C | 67.8
20 | CCNC(=O)/C=C/c1ccccc1OC | 68.5
21 | CCN(CC)C(=O)/C=C/c1ccccc1OC | 78.2
22 | O=C(/C=C/C=C/c1ccc(O)cc1)N1CCCCC1 | 48.4
23 | O=C(/C=C/c1ccc(N2CCNCC2)cc1)N1CCCCC1 | 72.6
24 | CC(C)(C)c1cc(O)ccc1O [E319] | 70.4
25 | O=C(/C=C/C=C/c1ccccc1O)N1CCCCC1 | 68.8
26 | O=C(/C=C/c1ccc2c(c1)OCO2)N1CCCCC1 [ILEPCIMIDE] | 77
27 | O=C(/C=C/C=C/c1ccc(N2CCCC2)cc1)N1CCCCC1 | 37.2
28 | CCNC(=O)/C=C/C=C/c1ccc2c(c1)OCO2 | 22.3
29 | CCN(CC)C(=O)/C=C/c1ccc2c(c1)OCO2 | 71.7
30 | CCNC(=O)/C=C/c1ccc(N2CCNCC2)cc1 | 42.7
31 | CCN(CC)C(=O)/C=C/c1ccc(N2CCNCC2)cc1 | 69.1
32 | COc1ccccc1/C=C/C(=O)N1CCCCC1 | 81.3
33 | CCN(CC)C(=O)/C=C/c1cccs1 | 54.3
34 | O=C(/C=C/c1cccs1)N1CCCCC1 | 50.4

Reference: ChEMBL document CHEMBL4765320, “Identification and optimization of piperine analogues as neuroprotective agents for the treatment of Parkinson's disease via the activation of Nrf2/keap1 pathway” (Eur J Med Chem, 2020)
